Earlier results, collected in patent publication US20050070607A1, “N-acetylcysteine compositions and methods for the treatment and prevention of cysteine/glutathione deficiency in diseases and conditions” (priority 2003, published 2005).
Like-named read-outs stand apart in the source and are kept apart here.

What was measured:
[1] = system: premature infants with chronic lung disease; details: intratracheal NAC 5%; total airway resistance, cyanotic spells; n 22; 24 hours; Bibi 1992[203]
[2] = system: Contrast-induced nephropathy (CIN)
[3] = system: Sickle Cell Disease/Vaso-occlusive disease; details: 2,400 mg daily, 12 months, Pace 2003[18]
[4] = system: colonic crypt epithelium of human volunteers who previously had adenomatous polyps; details: Colon cancer; proliferative index; 800 mg NAC daily po; n 64; 12 weeks; Estensen 1999[55]
[5] = compared with the stable cysteine disulfide
[6] = system: subjects with acetaminophen-induced fulminant hepatic failure; details: late presentation; survival, cerebral edema, hypotension; IV 150 mg/kg for 15 min; 50 mg/kg for 4 h; 100 mg/kg over 16 h; n 50; 21 days; Keays 1991[2]
[7] = system: Stable angina and nitrate tolerance
Sjogren's syndrome = details: ocular soreness, ocular irritability, halitosis, daytime thirst; 200 mg daily; n 26; 6 weeks; Walters 1986[56]
plaque formation = details: 2 weeks, Bowles 1985[61]
[8] = system: Hepatic transplant patients; details: oxygen delivery and consumption, base deficit; 150 mg/kg for 15 min; 12.5 mg/kg for 4 h; n 50; 5 hours; Bromley 1995[19]
[9] = system: patients who have already developed fulminant hepatic failure; details: observational study, one hundred patients [138]
Malnourished children = details: GSH synthesis rate and concentration; 0.5 mmol per kg per day; placebo alanine; n 32; 50 days; Badaloo 2002[54]
[10] = system: normal subjects breathing against high inspiratory loads; details: development of diaphragm fatigue; 150 mg/kg IV; n 4; 3 weeks; Travaline 1997[37]
Hyperoxic ventilation = details: whole body oxygen uptake, oxygen extraction ratio, gastric intramucosal pH; IV over 15 min; n 38; 72 hours; Reinhart 1995[266]
[11] = system: otitis media with effusion; details: instillation into one ear; recurrence, VT re-insertion, time until VT extrusion; 0.05 ml Mucomyst solution at 1, 3 and 7 days; n 75; 39 months; Ovesen 2000[53]
Chronic blepharitis = details: tear film quality (FBUT, mucous fern pattern); 300 mg/day po; n 40; 4 months; Yalcin 2002[57]

Q: Which “RR, composite cardiovascular outcome” value (hemodialysis patients; 134 chronic hemodialysis patients, p=0.03, [17]) does the source give for `CC(=O)N[C@@H](CS)C(=O)O` [NAC, N-acetylcysteine] here?
A: 0.60

Q: And the Beneficial effects (hemodialysis patients; Homocysteine in hemodialysis, intravenous 5 g in 5% glucose solution, n 20, 1 session, Scholze 2004[273])?
A: Beneficial

Q: And the “serum oxidized LDL values at the end of the study” value (hemodialysis patients; chronic hemodialysis patients [17])?
A: much lower

Q: What about the “Plasma homocysteine level change” value (hemodialysis patients; chronic oral 1200 mg BID, 4 weeks, placebo −8%, P = 0.07, Friedman 2003[276]) of the same molecule?
A: chronic oral NAC therapy (−19%) but did

Q: What about the Beneficial effects (hemodialysis patients; composite cardiovascular end points, 600 mg bid, n 134, 1-24 months, median 14.5 months, Tepel 2003[17]) of the same molecule?
A: Beneficial

Q: What about the “Plasma homocysteine level after hemodialysis” value (hemodialysis patients; control group 58 +/− 22%, P < 0.01, intravenous 5 g, Scholze 2004[273]) of the same molecule?
A: homocysteine levels decreased to 12 +/− 7% of predialysis level (mean +

Q: And the Beneficial effects (hemodialysis patients; end-stage renal failure, plasma homocysteine, pulse pressure, endothelial function, 5 g in 5% glucose, n 20, Scholze 2004[273])?
A: Beneficial

Q: What about the Beneficial effects (Bronchitis; General Health Questionnaire score, mild chronic bronchitis, 1200 mg/day po, n 153, 22 weeks, Hansen 1994[34]) of the same molecule?
A: Beneficial

Q: What about the Beneficial effects (Bronchitis; days incapacitated, 600 mg/day po, n 526, 6 months, Parr and Huitson 1987[31]) of the same molecule?
A: Beneficial

Q: And the Beneficial effects (Bronchitis; difficulty in expectoration and cough severity, 600 mg/day po, n 155, 3 months, Jackson 1984[30])?
A: Beneficial

Q: What about the Beneficial effects (Bronchitis; evening peak flows after NAC pre-treatment, 1200 mg/day po, n 37, 22 weeks, Evald 1989[33]) of the same molecule?
A: Beneficial

Q: And the Beneficial effects (Bronchitis; exacerbation rate, 400 mg/day po, n 259, 6 months, Boman 1983[29])?
A: Beneficial

Q: And the Beneficial effects (Bronchitis; frequency of exacerbations, 600 mg/day, 3 days/wk, po, n 69, 6 months, Grassi and Morandini 1976[24])?
A: Beneficial

Q: And the Beneficial effects (Bronchitis; sick-leave days caused by exacerbations, 600 mg/day po, n 116, 6 months, Rasmussen and Glennow 1988[32])?
A: Beneficial

Q: And the Beneficial effects (Bronchitis; sputum consistency, expectoration, peak expiratory flow rate, 600 mg/day po, n 29, 4 weeks, Aylward 1980[25])?
A: Beneficial

Q: And the Beneficial effects (Bronchitis; sputum thickness, expectoration, exacerbations, 400 mg/day po, n 744, 6 months, Grassi 1980, Ferrari 1980[27,28])?
A: Beneficial

Q: And the Beneficial effects (Bronchitis; sputum volume and viscosity, acute and chronic bronchitis, 600 mg/day po, n 215, 10 days, Brocard 1980[26])?
A: Beneficial

Q: And the Beneficial effects [1]?
A: Adverse

Q: And the “RR (incidence of contrast-induced nephropathy)” value ([2]; 400 mg PO bid for 2 days, n 121, Shyu 2002[8])?
A: contrast-induced nephropathy (RR 0.13)

Q: And the “RR (incidence of post-catheterization nephropathy)” value ([2]; 600 mg PO bid, n 54, Diaz-Sandoval 2002[7])?
A: 0.21) in patients with stable chronic renal

Q: What about the “relative risk, RR (reduction in renal function induced by iopromide)” value ([2]; 600 mg PO bid, n 83, Tepel[3-5]) of the same molecule?
A: contrast agent (relative risk, RR 0.10)

Q: And the “reduction in the incidence of acute renal failure” value ([2]; 83 patients with baseline renal impairment, computed tomography with nonionic low-osmolality contrast agent, Tepel[3-5])?
A: 90%

Q: What about the Beneficial effects ([2]; chronic renal insufficiency, iopromide, 600 mg PO bid with hydration, n 83, 2 days, Tepel 2000, 2001, 2003[3-5]) of the same molecule?
A: Beneficial

Q: What about the “incidence of CIN by 48 hours” value ([2]; control 6.4%, 1500 mg for 4 doses, Oldemeyer 2003[188]) of the same molecule?
A: both groups was low (NAC 8.2%, control

Q: What about the “incidence of CIN at 48 hours” value ([2]; control 12%, 600 mg 4 times daily, Boccalandro 2003[187]) of the same molecule?
A: hours (NAC, 13%; control 12%) after

Q: And the “RR (contrast-induced deterioration in renal function)” value ([2]; coronary angiographic procedures, 600 mg PO bid, n 200, Kay 2003[6])?
A: adverse effects (RR 0.32). Kay, 2003[6]

Q: And the Beneficial effects ([2]; moderate chronic renal insufficiency, coronary angiographic procedures, 600 mg PO bid, n 200, 3 days, Kay 2003[6])?
A: Beneficial

Q: What about the Beneficial effects ([2]; oxidative stress-mediated proximal tubular injury, 1200 mg daily, n 24, 4 days, Drager 2004[271]) of the same molecule?
A: Beneficial

Q: What about the Beneficial effects ([2]; serum creatinine > 1.2 mg/dL, elective coronary angiography, creatinine clearance at 24 and 96 hours, 1000 mg daily, n 49, 4 days, Efarti 2003[9]) of the same molecule?
A: Beneficial

Q: And the Beneficial effects ([2]; serum creatinine >= 1.5 mg/dL, elective cardiac catheterization, 600 mg 5 doses, n 43, 3 days, MacNeil 2003[10])?
A: Beneficial

Q: What about the Beneficial effects ([2]; stable chronic renal insufficiency, coronary angiography, 400 mg PO bid for 2 days, n 121, 7 days, Shyu 2002[8]) of the same molecule?
A: Beneficial

Q: And the Beneficial effects ([2]; stable chronic renal insufficiency, elective cardiac catheterization, 600 mg PO bid, n 54, 2 days, Diaz-Sandoval 2002[7])?
A: Beneficial

Q: What about the “incidence of contrast nephropathy” value ([2]; subset receiving <140 mL contrast agent, from 8.5%, p=0.02, 183 patients [190]) of the same molecule?
A: 0%

Q: What about the “development of CIN by 72 hours” value ([2]; vs 32.2% placebo, P = 0.046, 600 mg 5 doses, MacNeil 2003[10]) of the same molecule?
A: catheterization (4.8% vs 32.2%, P =

Q: What about the vaso-occlusive episodes ([3]; decreased from 0.03) of the same molecule?
A: occlusive episodes (0.03 to 0.006 episodes episodes per person-days

Q: What about the Beneficial effects ([3]; dense cell formation, glutathione levels, vaso-occlusive episodes, n 21) of the same molecule?
A: Beneficial

Q: And the Beneficial effects (septic shock patients; Cardiac performance, MAP, cardiac index, left ventricular stroke work index, early administration 150 mg/kg over 15 min, 50 mg/kg over next 4 hrs, 100 mg/kg over next 24 hrs, n 20, 48 hours, Peake 1996[281])?
A: Adverse

Q: And the Beneficial effects (septic shock patients; hepatosplanchnic flow and function, 150 mg/kg over 15 min before 12.5 mg/kg/hr for 90 min, n 60, 2 hours, Rank 2000[44])?
A: Beneficial

Q: And the Beneficial effects (septic shock patients; respiratory function, ICU stay, IL-8, 150 mg/kg bolus then 50 mg/kg over 4 hr IV, n 22, 24 hours, Spapen 1998[43])?
A: Beneficial

Q: And the Beneficial effects (septic shock patients; tissue oxygenation, survival of responders, 150 mg/kg for 15 min, then 12.5 mg/hr over 90 min IV, n 58, 2 hrs, Spies 1994[42])?
A: Beneficial

Q: What about the Treatment effect [4] of the same molecule?
A: Beneficial

Q: What about the “apoptosis induction by cardioplegic arrest in left ventricular cardiac myocytes” value (Cardiac bypass; 100 mg/kg followed by infusion 20 mg/kg, n 36, Fischer 2004[270]) of the same molecule?
A: can effectively ne prevented by NAC.

Q: And the Beneficial effects (Cardiac bypass; oxidative burst response of peripheral neutrophils, 100 mg/kg bolus then 20 mg/kg continuous IV, n 12, 24 hours, Andersen 1995[16])?
A: Beneficial

Q: What about the “solubility relative to cystine” value [5] of the same molecule?
A: much more soluble

Q: What about the Beneficial effects (Smoking; formation of lipophilic-DNA adducts, 1200 mg/day po, n 41, 6 months, VanShooten 2002[35]) of the same molecule?
A: Beneficial

Q: And the Beneficial effects (Smoking; mucus clearance, 600 mg/day, n 12, 30 days, Olivieri 1985[36])?
A: Beneficial

Q: What about the Treatment effect [6] of the same molecule?
A: Beneficial

Q: What about the Beneficial effects ([7]; NAC + ISDN infusion, tolerance to antianginal effects, 2 g IV bolus, n 10, 30 hours, Boesgaard 1992[14]) of the same molecule?
A: Beneficial

Q: And the Beneficial effects ([7]; NAC + isosorbide dinitrate (ISDN), ST segment depression, 2400 mg daily po, n 7, 8 days, Boesgaard 1991[13])?
A: Beneficial

Q: And the Beneficial effects ([7]; NAC + isosorbide-5-mononitrate, total exercise time, 4800 mg po, n 10, 24 hours, Svendsen 1989[12])?
A: Beneficial

Q: What about the Beneficial effects (Sjogren's syndrome) of the same molecule?
A: Beneficial

Q: And the “side effect reported for NAC treatment for inflammatory conditions” value (not found clinically significant [106])?
A: mild to moderate anticoagulation

Q: What about the “adverse responses to intravenous NAC administration” value (several reports [163,249-256]) of the same molecule?
A: anaphylactoid and allergic responses

Q: And the “reduction on plaque attributable to NAC” value (plaque formation; p < .001, 10% aqueous solution)?
A: 25.56% reduction on plaque attributable to

Q: And the Beneficial effects (plaque formation; plaque indices, 10% aqueous solution of NAC buffered to pH 6.5, n 28)?
A: Beneficial

Q: And the Treatment effect [8]?
A: Beneficial

Q: And the survival [9]?
A: significantly increased survival

Q: What about the Treatment effect (Malnourished children) of the same molecule?
A: Beneficial

Q: And the Beneficial effects [10]?
A: Beneficial

Q: And the Treatment effect (Hyperoxic ventilation)?
A: Beneficial

Q: And the Beneficial effects [11]?
A: Beneficial

Q: What about the Beneficial effects (Chronic blepharitis) of the same molecule?
A: Beneficial

Q: And the “time for elevated serum lactate levels to return to normal vs placebo” value (severe malaria; 300 mg/kg intravenously over 20 hours, 30 subjects [51])?
A: twice as quickly

Q: And the Beneficial effects (severe malaria; quinine-treated malaria, serum lactate, 300 mg/kg IV, n 30, 20 hours, Watt 2002[51])?
A: Beneficial

Q: What about the “Hearing loss and cochlear damage from aminoglycoside antibiotics and cisplatin” value (cochlea; animal models [245-247]) of the same molecule?
A: greatly reduced

Q: What about the “permanent cochlear damage due to acute acoustic overexposure” value (cochlea; animal models, systemic administration [246,248]) of the same molecule?
A: almost completely prevented
